Source: PubChem BioAssay AID1963874 (Molecular Pharmacology Branch, DTP, NCI, 2024)
Values joined by “and” are separate entries in the source; they are usually repeats but may differ in a detail not shown here. Equal entries are not always repeated.

Test system: 253994-281-T-J1-PDC KRAS-mutant spheroids with HUVEC/MSC, viability
Assay: Anticancer human tumor 253994-281-T-J1-PDC patient-derived colorectal carcinoma cell line growth inhibition [KRAS2]
Conditions: for viability, T/C: stronger effect = lower value
Summary of the method: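 KRAS-mutant tumor cells were grown as spheroids with HUVEC endothelial cells and human MSCs as stroma. Targeted agents were tested alone and with KRAS pathway inhibitors. Doses started at or near clinical Cmax, or 10 microM, descending half-log.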

[1] = curve of first compound, second compound 0.1 µM
[2] = curve of first compound, second compound 0.316 µM
[3] = curve of first compound, second compound 1 µM
[4] = curve of first compound, second compound 3.16 µM
[5] = curve of first compound, second compound 10 µM
[6] = second compound 0.1 µM, first compound 0.0316 µM
[7] = second compound 0.1 µM, first compound 0.1 µM
[8] = second compound 0.1 µM, first compound 0.316 µM
[9] = second compound 0.1 µM, first compound 1 µM
[10] = second compound 0.1 µM, first compound 3.16 µM
[11] = second compound 0.1 µM, first compound 10 µM
[12] = second compound 0.316 µM, first compound 0.0316 µM
[13] = second compound 0.316 µM, first compound 0.1 µM
[14] = second compound 0.316 µM, first compound 0.316 µM
[15] = second compound 0.316 µM, first compound 1 µM
[16] = second compound 0.316 µM, first compound 3.16 µM
[17] = second compound 0.316 µM, first compound 10 µM
[18] = second compound 1 µM, first compound 0.0316 µM
[19] = second compound 1 µM, first compound 0.1 µM
[20] = second compound 1 µM, first compound 0.316 µM
[21] = second compound 1 µM, first compound 1 µM
[22] = second compound 1 µM, first compound 3.16 µM
[23] = second compound 1 µM, first compound 10 µM
[24] = second compound 3.16 µM, first compound 0.0316 µM
[25] = second compound 3.16 µM, first compound 0.1 µM
[26] = second compound 3.16 µM, first compound 0.316 µM
[27] = second compound 3.16 µM, first compound 1 µM
[28] = second compound 3.16 µM, first compound 3.16 µM
[29] = second compound 3.16 µM, first compound 10 µM
[30] = second compound 10 µM, first compound 0.0316 µM
[31] = second compound 10 µM, first compound 0.1 µM
[32] = second compound 10 µM, first compound 0.316 µM
[33] = second compound 10 µM, first compound 1 µM
[34] = second compound 10 µM, first compound 3.16 µM
[35] = second compound 10 µM, first compound 10 µM
[36] = second compound 0.1 µM, first compound 0.000316 µM
[37] = second compound 0.1 µM, first compound 0.001 µM
[38] = second compound 0.1 µM, first compound 0.00316 µM
[39] = second compound 0.1 µM, first compound 0.01 µM
[40] = second compound 0.316 µM, first compound 0.000316 µM
[41] = second compound 0.316 µM, first compound 0.001 µM
[42] = second compound 0.316 µM, first compound 0.00316 µM
[43] = second compound 0.316 µM, first compound 0.01 µM
[44] = second compound 1 µM, first compound 0.000316 µM
[45] = second compound 1 µM, first compound 0.001 µM
[46] = second compound 1 µM, first compound 0.00316 µM
[47] = second compound 1 µM, first compound 0.01 µM
[48] = second compound 3.16 µM, first compound 0.000316 µM
[49] = second compound 3.16 µM, first compound 0.001 µM
[50] = second compound 3.16 µM, first compound 0.00316 µM
[51] = second compound 3.16 µM, first compound 0.01 µM
[52] = second compound 10 µM, first compound 0.000316 µM
[53] = second compound 10 µM, first compound 0.001 µM
[54] = second compound 10 µM, first compound 0.00316 µM
[55] = second compound 10 µM, first compound 0.01 µM
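Note: spheroids exposed to agents for seven days before readout.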
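Throughout, for viability, T/C: percent of DMSO vehicle control viability.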

| Compound | IC50 [1] [µM] | IC50 [2] [µM] | IC50 [3] [µM] | IC50 [4] [µM] | IC50 [5] [µM] | viability, T/C [6] [%] | viability, T/C [7] [%] | viability, T/C [8] [%] | viability, T/C [9] [%] | viability, T/C [10] [%] | viability, T/C [11] [%] | viability, T/C [12] [%] | viability, T/C [13] [%] | viability, T/C [14] [%] | viability, T/C [18] [%] | viability, T/C [19] [%] | viability, T/C [24] [%] | viability, T/C [25] [%] | viability, T/C [30] [%] | viability, T/C [31] [%] | also measured |
| --- | --- | --- | --- | --- | --- | --- | --- | --- | --- | --- | --- | --- | --- | --- | --- | --- | --- | --- | --- | --- | --- |
| COc1cc2nccc(Oc3ccc(NC(=O)C4(C(=O)Nc5ccc(F)cc5)CC4)cc3)c2cc1OC + COc1cc2nc(C)nc(NC(C)c3cc(N)cc(C(F)(F)F)c3)c2cc1OC1CCOC1 | > 10 | > 10 | 5.93 | 4.91 | 5.18 | 99.1 | 101 | 118 | 89.4 | 87.6 | 52.2 | 106 | 110 | 113 | 101 | 106 | 99.6 | 97.3 | 93.8 | 89.1 | viability, T/C [15]: 109%; viability, T/C [16]: 92.2%; viability, T/C [17]: 59.3%; viability, T/C [20]: 101%; viability, T/C [21]: 92.5%; viability, T/C [22]: 76.4%; viability, T/C [23]: 28.3%; viability, T/C [26]: 109%; viability, T/C [27]: 104%; viability, T/C [28]: 70.2%; viability, T/C [29]: 17.7%; viability, T/C [32]: 86.5%; viability, T/C [33]: 82.3%; viability, T/C [34]: 81.7%; viability, T/C [35]: 7.51% |
| CN(C)C/C=C/C(=O)Nc1cc2c(Nc3ccc(F)c(Cl)c3)ncnc2cc1O[C@H]1CCOC1 + COc1cc2nc(C)nc(NC(C)c3cc(N)cc(C(F)(F)F)c3)c2cc1OC1CCOC1 | > 0.1 | > 0.1 | > 0.1 | > 0.1 | > 0.1 | 90 | 67.7 | – | – | – | – | 73.5 | 57.8 | – | 91.2 | 69.8 | 61.2 | 55.2 | 68.8 | 54.5 | viability, T/C [36]: 100%; viability, T/C [37]: 98.2%; viability, T/C [38]: 108%; viability, T/C [39]: 85.8%; viability, T/C [40]: 86.3%; viability, T/C [41]: 97.8%; viability, T/C [42]: 86.8%; viability, T/C [43]: 81.5%; viability, T/C [44]: 84.4%; viability, T/C [45]: 88.7%; viability, T/C [46]: 116%; viability, T/C [47]: 90%; viability, T/C [48]: 94.8%; viability, T/C [49]: 87.4%; viability, T/C [50]: 81.3%; viability, T/C [51]: 86.8%; viability, T/C [52]: 83.5%; viability, T/C [53]: 84.1%; viability, T/C [54]: 82.9%; viability, T/C [55]: 79.2% |
| CC1OCC2(CCN(c3cnc(Sc4ccnc(N)c4Cl)c(N)n3)CC2)C1N (configuration not stated) | – | – | – | – | – | – | – | – | – | – | – | – | – | – | – | – | – | – | – | – | viability, T/C (compound 0.0316 µM): 90.6% and 111% and 96.5%; IC50 (curve of compound): > 10 µM |
| Cn1ncnc1[C@H]1c2n[nH]c(=O)c3cc(F)cc(c23)N[C@@H]1c1ccc(F)cc1 + COc1cc2nc(C)nc(NC(C)c3cc(N)cc(C(F)(F)F)c3)c2cc1OC1CCOC1 | > 0.1 | > 0.1 | > 0.1 | > 0.1 | > 0.1 | 92.5 | 78.8 | – | – | – | – | 91.9 | 78.1 | – | 87.1 | 85.3 | 77.2 | 85.5 | 83.7 | 68.3 | viability, T/C [36]: 92.5%; viability, T/C [37]: 95.7%; viability, T/C [38]: 79%; viability, T/C [39]: 90.8%; viability, T/C [40]: 80%; viability, T/C [41]: 84.5%; viability, T/C [42]: 86.1%; viability, T/C [43]: 80.4%; viability, T/C [44]: 88.5%; viability, T/C [45]: 92.2%; viability, T/C [46]: 86.6%; viability, T/C [47]: 89.1%; viability, T/C [48]: 87.5%; viability, T/C [49]: 86.5%; viability, T/C [50]: 91.7%; viability, T/C [51]: 89.7%; viability, T/C [52]: 80.9%; viability, T/C [53]: 84.7%; viability, T/C [54]: 72.6%; viability, T/C [55]: 77.7% |
| Cn1nccc1Nc1nccc(-c2cc3c(s2)C(C)(C)N(CCN2CCOCC2)C3=O)n1 + C=CC(=O)N1CCN(c2nc(=O)n(-c3c(C)ccnc3C(C)C)c3nc(-c4c(O)cccc4F)c(F)cc23)C(C)C1 | 2.39 | 3.04 | 2.77 | 2.48 | 3 | 97.8 | 105 | 85.6 | 68.6 | 45 | 26.1 | 102 | 110 | 86.3 | 90.2 | 87.6 | 87 | 94.2 | 84.2 | 80.5 | viability, T/C [15]: 78.7%; viability, T/C [16]: 46.7%; viability, T/C [17]: 32.8%; viability, T/C [20]: 81.7%; viability, T/C [21]: 73.6%; viability, T/C [22]: 46.3%; viability, T/C [23]: 26.7%; viability, T/C [26]: 86.4%; viability, T/C [27]: 72.1%; viability, T/C [28]: 44.1%; viability, T/C [29]: 33.8%; viability, T/C [32]: 96.7%; viability, T/C [33]: 75%; viability, T/C [34]: 49.6%; viability, T/C [35]: 35.4% |
| O=C(c1cc(Cc2n[nH]c(=O)c3ccccc23)ccc1F)N1CCN(C(=O)C2CC2)CC1 + COc1cc2nc(C)nc(NC(C)c3cc(N)cc(C(F)(F)F)c3)c2cc1OC1CCOC1 | > 10 | > 10 | > 10 | > 10 | > 10 | 86.4 | 88.5 | 85.3 | 91.2 | 96.1 | 106 | 92.3 | 82.5 | 81.1 | 102 | 87.7 | 92.7 | 90.5 | 93.6 | 98.7 | viability, T/C [15]: 94.3%; viability, T/C [16]: 90.7%; viability, T/C [17]: 68.6%; viability, T/C [20]: 92.4%; viability, T/C [21]: 103%; viability, T/C [22]: 115%; viability, T/C [23]: 90.2%; viability, T/C [26]: 89.3%; viability, T/C [27]: 129%; viability, T/C [28]: 74.5%; viability, T/C [29]: 86.6%; viability, T/C [32]: 90.8%; viability, T/C [33]: 84.3%; viability, T/C [34]: 99%; viability, T/C [35]: 106% |
| COC(=O)c1ccc2c(C(=Nc3ccc(N(C)C(=O)CN4CCN(C)CC4)cc3)c3ccccc3)c(O)[nH]c2c1 + CNCc1ccccc1-c1csc(C(C)Nc2nc(C)nc3cc(OC)c(OC)cc23)c1 | 6.67 | 4.12 | 4.52 | < 0.0316 | < 0.0316 | 90.3 | 97.4 | 73.2 | 89.3 | 77 | 35.2 | 99.1 | 74.1 | 80.8 | 82.6 | 75 | 20.7 | 23.6 | 0.14 | 0.16 | viability, T/C [15]: 83.8%; viability, T/C [16]: 61.7%; viability, T/C [17]: 10.7%; viability, T/C [20]: 77.3%; viability, T/C [21]: 70.8%; viability, T/C [22]: 72.3%; viability, T/C [23]: 0.33%; viability, T/C [26]: 3.7%; viability, T/C [27]: 1.12%; viability, T/C [28]: 0.36%; viability, T/C [29]: 0.17%; viability, T/C [32]: 0.15%; viability, T/C [33]: 0.22%; viability, T/C [34]: 0.12%; viability, T/C [35]: 0.17% |
